# Experimental data taken from patent US20250188123A1, “PROTEASE INHIBITORS” (Regents of the University of Minnesota, priority 2022, published 2025).
# Biological target: T1, Human recombinant Casp6 (Homo sapiens, UniProt P55212)
# T1 construct: purchased BioVision (Milpitas/CA, USA)
# T1 sequence (P55212 24-293): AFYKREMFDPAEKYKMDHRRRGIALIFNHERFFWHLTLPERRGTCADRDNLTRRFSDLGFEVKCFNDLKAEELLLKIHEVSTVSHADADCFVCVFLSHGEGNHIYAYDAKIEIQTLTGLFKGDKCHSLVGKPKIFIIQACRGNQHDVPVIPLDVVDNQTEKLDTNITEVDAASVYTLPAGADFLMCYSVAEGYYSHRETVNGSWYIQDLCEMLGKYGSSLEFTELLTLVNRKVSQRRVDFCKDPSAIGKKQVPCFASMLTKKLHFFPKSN
# Test: In vitro caspase panel assay, Casp6
# Assay type: biochemical
# Conditions: Casp2 over Casp6, caspase panel
# From the text: Human recombinant Casp1, 6, 7, and 9 were purchased from BioVision (Milpitas/CA, USA). AFC fluorogenic substrates and control peptides (AcYVAD-CHO, AcVDVAD-CHO, AcDEVD-CHO, AcVEID-CHO, and AcLEHD-CHO) were purchased from Bachem (Torrance/CA, USA). The pET23b vector encoding human caspase-3 was a gift of Dr. Michelle Arkin at University of California, San Francisco. Expression and purification of Casp3 was guided by previously described protocols (Denault J-B, Salvesen G S., Current Protocols in Protein Science, 2002, 30(1), 21.13. 1-21.13. 15). Briefly, the plasmid was transformed into E. coli Rosetta 2 pLyss DE3 cells that were cultured at 1 L scale in shake flasks. […] The typical yield for the expression, isolation, and purification was approximately 3 mg/L. The DNA encoding human caspase-2 (hCASP2, amino acids 170-452, free of the N-terminal caspase activation and recruitment domain) open reading frame (ORF) was amplified via polymerase chain reaction (PCR) from full-length hCASP2 cDNA (Origene, Rockville, MD; Cat #SC321316) using following primers: forward, 5′-[…]-3′; reverse, 5′-[…]-3′. […] Proteins were stored in 1× phosphate-buffered saline (pH 7.4) at 10 mg/mL (concentration determined using a BCA assay (Thermo Fisher Scientific)), −80° C. until further use. […]
smiles,measurement,value
"Cc1ccc2c(c1)CCN(C(=O)[C@@H](NC(=O)[C@H](CCCC(=O)O)NC(=O)C1Cc3ccccc3N1)C(C)C)[C@@H]2C(=O)N[C@H](C#N)CC(=O)O (stereo partly drawn) [Compound 1, (8)-6-(((S)-1-((8)-1-(((S)-2-carboxy-1-cyanoethyl)carbamoyl)-6-methyl-3,4-dihydroisoquinolin-2(1H)-yl)-3-methyl-1-oxobutan-2-yl)amino)-5-((S)-indoline-2-carboxamido)-6-oxohexanoic acid]",selective versus Casp6,> 2000 fold
